We go through three molecules from US7687237B2, “Method of identification and quantification of proteins, isoforms of the angiotensin I converting enzyme” (Universidade Federal de Sao Paulo - UNIFESP, priority 2002, dated 2010).

Test [1] has as its system enzyme of 63 kDa molecular weight which breaks the Phe8-Arg9 BK bond. Particulars: enzyme contained in urine, described by Ryan et al 1978; cited from earlier work.
In another test the test system is SHR rats. Put plainly: SHR rats treated with enalapril: blood pressure. In kind it is in vivo, rat. Particulars: isogenic hypertensive SHR rats treated with enalapril.
Test [2] concerns angiotensin I converting enzyme (ACE). Briefly: ACE enzymatic activity (Hipuril-His-Leu substrate, Friedland and Silverstein method) in essential hypertensive patients after oral captopril. The class given is in vivo, human. Particulars: captopril 50 to 150 mg orally.
Description: Three days study, each day, each six hours collect duration; samples of blood and urine were collected at the final basal period (1 hour), after they reach the supine position, as well as at the end of the study (after 6 hours). […] The enzymatic activity using Hipuril-His-Leu substrate was measured by Friedland and Silverstein method (1976).

On to BPP9a, for which the “inhibition of the 63 kDa urine enzyme” value in test [1] is on record as “not inhibited”.
Take `CCOC(=O)[C@H](CCc1ccccc1)N[C@@H](C)C(=O)N1CCC[C@H]1C(=O)O` [enalapril]: in the test on SHR rats, the “blood pressure of treated SHR rats” value was “pressure under control”.
Regarding `C[C@H](CS)C(=O)N1CCC[C@H]1C(=O)O` [captopril], the “inhibition on the enzyme activity” value in test [2] (essential (light and/or mild) arterial hypertensive patients, one-day dose, between 1 and 2 hours after administration, Hipuril-His-Leu substrate) stood at 50%. The “enzyme activity at the end of the studies” value in test [2] (essential arterial hypertensive patients, end of the study (after 6 hours)) is on record as “returning to the basal levels”.
